From the supplement of paper PMC10307832 come the findings set out here.

Holding throughout (test): relative viability (nuclei count vs DMSO), 5 days (fraction); higher = more cells survive
Compound in experiment [1]: COc1nc(N)nc2c1ncn2[C@@H]1O[C@H](CO)[C@@H](O)[C@@H]1O [Nelarabine] + O=C(c1cc(Cc2n[nH]c(=O)c3ccccc23)ccc1F)N1CCN(C(=O)C2CC2)CC1 [Olaparib] (partner 8 µM)
The method in brief:
(§1)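 For relative viability, nuclei counts in treated wells were divided by those in vehicle wells. Lung cancer cell lines had been pin-tool dosed in 1536-well plates the day after seeding and cultured for 5 days, then fixed and stained in one step (final 0.05% Triton X-100, 1% formaldehyde, 1 ug/ml Hoechst) and imaged at 4×. Doses were one drug alone or a fixed anchor-drug dose plus five library-drug doses (not always all listed) in √10 steps, and values are duplicate-plate medians.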

Compound in experiment [2]: COc1nc(N)nc2c1ncn2[C@@H]1O[C@H](CO)[C@@H](O)[C@@H]1O [Nelarabine] + Nc1ncn([C@H]2C[C@H](O)[C@@H](CO)O2)c(=O)n1 [Decitabine] (partner 2 µM)
The method in brief: as §1

Compound in experiment [3]: COc1nc(N)nc2c1ncn2[C@@H]1O[C@H](CO)[C@@H](O)[C@@H]1O [Nelarabine] + C[C@@H](Oc1cc(-c2cnn(C3CCNCC3)c2)cnc1N)c1c(Cl)ccc(F)c1Cl [Crizotinib] (partner 1 µM)
A digest of the protocol: as §1

Compound in experiment [4]: C=CCn1c(=O)c2cnc(Nc3ccc(N4CCN(C)CC4)cc3)nc2n1-c1cccc(C(C)(C)O)n1 [Adavosertib] + CS(=O)(=O)CCNCc1ccc(-c2ccc3ncnc(Nc4ccc(OCc5cccc(F)c5)c(Cl)c4)c3c2)o1 [Lapatinib] (partner 2 µM)
A digest of the protocol:
as §1

Turning to HCC-78, the relative viability is 1.01 in experiment [1] (first compound 0.01 µM); 0.857 in experiment [1] (first compound 0.03162 µM); 0.914 in experiment [1] (first compound 0.3162 µM); 0.87 in experiment [1] (first compound 1 µM); 0.713 in experiment [2] (first compound 0.01 µM); 0.639 in experiment [2] (first compound 0.03162 µM). Besides, the relative viability in experiment [2] (first compound 0.3162 µM) was 0.843; in experiment [2] (first compound 1 µM), 0.737; in experiment [3] (first compound 0.01 µM), 0.379; in experiment [3] (first compound 0.03162 µM) it was 0.365; in experiment [3] (first compound 0.3162 µM), 0.34; in experiment [3] (first compound 1 µM), 0.338. Moreover, the relative viability in experiment [4] (first compound 0.01 µM) was 0.509; in experiment [4] (first compound 0.03162 µM), 0.972; in experiment [4] (first compound 0.1 µM), 0.782; in experiment [4] (first compound 0.3162 µM), 0.868.

With HCC-366, the relative viability in experiment [1] (first compound 0.01 µM) amounted to 0.33; in experiment [1] (first compound 0.03162 µM), 0.327; in experiment [1] (first compound 0.1 µM) it was 0.434; in experiment [1] (first compound 0.3162 µM), 0.385; in experiment [1] (first compound 1 µM), 0.389; in experiment [2] (first compound 0.01 µM), 0.419. The relative viability in experiment [2] (first compound 0.03162 µM) is 0.346; in experiment [2] (first compound 0.1 µM), 0.296; in experiment [2] (first compound 0.3162 µM), 0.31; in experiment [2] (first compound 1 µM), 0.34; in experiment [3] (first compound 0.01 µM), 0.594; in experiment [3] (first compound 0.03162 µM), 0.222. Also, the relative viability was 0.51 in experiment [3] (first compound 0.1 µM); 1.01 in experiment [3] (first compound 0.3162 µM); 0.618 in experiment [3] (first compound 1 µM); 1.09 in experiment [4] (first compound 0.01 µM); 1.07 in experiment [4] (first compound 0.03162 µM); 1.08 in experiment [4] (first compound 0.1 µM). In addition, in experiment [4] (first compound 0.3162 µM), the relative viability was 1.13.

On to HCC-827, for which the relative viability in experiment [1] (first compound 0.01 µM) was found to be 0.673; in experiment [1] (first compound 0.03162 µM) it was 0.622; in experiment [1] (first compound 0.1 µM), 0.571; in experiment [1] (first compound 0.3162 µM), 0.571; in experiment [1] (first compound 1 µM), 0.463; in experiment [2] (first compound 0.01 µM) it was 0.24. The relative viability in experiment [2] (first compound 0.03162 µM) was determined as 0.315; in experiment [2] (first compound 0.1 µM), 0.306; in experiment [2] (first compound 0.3162 µM), 0.355; in experiment [2] (first compound 1 µM) it was 0.289; in experiment [3] (first compound 0.01 µM), 0.902; in experiment [3] (first compound 0.03162 µM), 0.811. Also, the relative viability in experiment [3] (first compound 0.1 µM) is 0.748; in experiment [3] (first compound 0.3162 µM), 0.682; in experiment [3] (first compound 1 µM), 0.607; in experiment [4] (first compound 0.01 µM) it was 0.198; in experiment [4] (first compound 0.03162 µM), 0.2; in experiment [4] (first compound 0.1 µM), 0.215. Also, the relative viability in experiment [4] (first compound 0.3162 µM) came to 0.191.

With HOP-62, the relative viability in experiment [1] (first compound 0.01 µM) was 0.479; in experiment [1] (first compound 0.03162 µM), 0.315; in experiment [1] (first compound 0.1 µM), 0.283; in experiment [1] (first compound 0.3162 µM) it was 0.368; in experiment [1] (first compound 1 µM), 0.458; in experiment [2] (first compound 0.01 µM) it was 0.214. The relative viability in experiment [2] (first compound 0.03162 µM) is 0.194; in experiment [2] (first compound 0.1 µM), 0.23; in experiment [2] (first compound 0.3162 µM) it was 0.182; in experiment [2] (first compound 1 µM), 0.229; in experiment [3] (first compound 0.01 µM), 1.08; in experiment [3] (first compound 0.03162 µM), 0.933. Besides, the relative viability in experiment [3] (first compound 0.1 µM) amounted to 0.998; in experiment [3] (first compound 0.3162 µM), 0.91; in experiment [3] (first compound 1 µM), 0.831; in experiment [4] (first compound 0.01 µM), 1.14; in experiment [4] (first compound 0.03162 µM), 1.23; in experiment [4] (first compound 0.1 µM), 1.04. For the same cell line, in experiment [4] (first compound 0.3162 µM), the relative viability came to 1.11.

In the case of IA-LM, the relative viability in experiment [1] (first compound 0.01 µM) was determined as 0.932; in experiment [1] (first compound 0.03162 µM), 0.811; in experiment [1] (first compound 0.1 µM), 0.877; in experiment [1] (first compound 0.3162 µM), 0.825; in experiment [1] (first compound 1 µM), 0.789; in experiment [3] (first compound 0.01 µM), 1.08. The relative viability in experiment [3] (first compound 0.03162 µM) came out at 0.674; in experiment [3] (first compound 0.1 µM), 0.844; in experiment [3] (first compound 0.3162 µM) it was 0.876; in experiment [3] (first compound 1 µM), 0.791; in experiment [4] (first compound 0.01 µM) it was 0.996; in experiment [4] (first compound 0.1 µM), 1.03. Besides, the relative viability in experiment [4] (first compound 0.3162 µM) worked out at 0.901.

Take LC-2-ad: the relative viability stood at 0.748 in experiment [1] (first compound 0.01 µM); 0.39 in experiment [1] (first compound 0.03162 µM); 0.668 in experiment [1] (first compound 0.1 µM); 0.753 in experiment [1] (first compound 0.3162 µM); 0.701 in experiment [1] (first compound 1 µM); 0.904 in experiment [2] (first compound 0.01 µM). The relative viability in experiment [2] (first compound 0.03162 µM) turned out to be 0.865; in experiment [2] (first compound 0.1 µM) it was 0.757; in experiment [2] (first compound 0.3162 µM), 0.932; in experiment [2] (first compound 1 µM) it was 0.73; in experiment [3] (first compound 0.01 µM), 0.497; in experiment [3] (first compound 0.03162 µM), 0.404. Further, the relative viability in experiment [3] (first compound 0.1 µM) worked out at 0.444; in experiment [3] (first compound 0.3162 µM) it was 0.421; in experiment [3] (first compound 1 µM) it was 0.447; in experiment [4] (first compound 0.01 µM), 0.964; in experiment [4] (first compound 0.03162 µM), 0.954; in experiment [4] (first compound 0.1 µM), 0.991. Also, the relative viability in experiment [4] (first compound 0.3162 µM) amounted to 0.906.

Consider LCLC-97TM1, for which the relative viability was 0.413 in experiment [1] (first compound 0.1 µM); 0.358 in experiment [1] (first compound 0.3162 µM); 0.388 in experiment [1] (first compound 1 µM); 0.274 in experiment [2] (first compound 0.1 µM); 0.279 in experiment [2] (first compound 0.3162 µM); 0.241 in experiment [2] (first compound 1 µM). The relative viability in experiment [3] (first compound 0.01 µM) is 0.481; in experiment [3] (first compound 0.03162 µM) it was 0.364; in experiment [3] (first compound 0.1 µM) it was 0.199; in experiment [3] (first compound 0.3162 µM), 0.401; in experiment [3] (first compound 1 µM) it was 0.383; in experiment [4] (first compound 0.03162 µM), 0.703. Also, the relative viability in experiment [4] (first compound 0.1 µM) worked out at 0.804; in experiment [4] (first compound 0.3162 µM) it was 0.686.

For the cell line LCLC-103H, the relative viability in experiment [1] (first compound 0.01 µM) stood at 0.951; in experiment [1] (first compound 0.03162 µM), 0.754; in experiment [1] (first compound 0.1 µM), 0.838; in experiment [1] (first compound 0.3162 µM), 0.762; in experiment [1] (first compound 1 µM), 0.815; in experiment [2] (first compound 0.01 µM) it was 0.924. Further, the relative viability in experiment [2] (first compound 0.03162 µM) came out at 0.716; in experiment [2] (first compound 0.1 µM), 0.809; in experiment [2] (first compound 0.3162 µM), 0.759; in experiment [2] (first compound 1 µM) it was 0.638; in experiment [3] (first compound 0.01 µM), 1.12; in experiment [3] (first compound 0.03162 µM), 1.03. The relative viability in experiment [3] (first compound 0.1 µM) is 1.07; in experiment [3] (first compound 0.3162 µM), 1.08; in experiment [3] (first compound 1 µM), 1.02.

For the cell line LK-2, the relative viability stood at 0.689 in experiment [1] (first compound 0.01 µM); 0.701 in experiment [1] (first compound 0.1 µM); 0.601 in experiment [1] (first compound 0.3162 µM); 0.635 in experiment [1] (first compound 1 µM); 0.261 in experiment [2] (first compound 0.01 µM); 0.272 in experiment [2] (first compound 0.1 µM). The relative viability worked out at 0.341 in experiment [2] (first compound 0.3162 µM); 0.319 in experiment [2] (first compound 1 µM); 0.222 in experiment [3] (first compound 0.01 µM); 0.223 in experiment [3] (first compound 0.1 µM); 0.205 in experiment [3] (first compound 0.3162 µM); 0.206 in experiment [3] (first compound 1 µM). Besides, the relative viability amounted to 0.866 in experiment [4] (first compound 0.01 µM), 1.05 in experiment [4] (first compound 0.03162 µM), 1.01 in experiment [4] (first compound 0.1 µM) and 0.97 in experiment [4] (first compound 0.3162 µM).
